The results in this text go back to the NIST ThermoML archive (doi:10.1021/je0604479).

By refractive index is commonly meant a measure of how strongly the sample bends light. Usually mass density stands for mass per unit of volume. The term vapor or sublimation pressure denotes the pressure of vapour in equilibrium with the condensed phase.

± gives the expanded uncertainty stated by the source.

The nature of series [1]: refractive index (Na D-line) (dimensionless). The following applies: 298.15 K; 101.33 kPa; Liquid; Standard Abbe refractometry.
The conditions of series [2]: Liquid; for mass density: 298.15 K, 101.33 kPa.

Regarding `CN(C)C=O` [dimethylformamide], in series [1], the refractive index turned out to be 1.4265 ± 0.0008. For the same molecule, the mass density in series [2] is recorded as 948.72 ± 0.49 kg/m3. Besides, the “vapor or sublimation pressure” value in series [2] (425.63 K) is on record as 101.3 ± 0.8 kPa.

For the molecule `CCCOCCC` [dipropyl ether], the refractive index in series [1] came out at 1.3784 ± 0.0008. In series [2], the mass density was 741.81 ± 0.65 kg/m3. Moreover, the “vapor or sublimation pressure” value in series [2] (363.16 K) is 101.3 ± 0.8 kPa.

Turning to `CCCO` [propan-1-ol], in series [1], the refractive index turned out to be 1.3836 ± 0.0008. Further, in series [2], the mass density stood at 799.62 ± 0.57 kg/m3. Moreover, in series [2] (369.75 K), the “vapor or sublimation pressure” value is 101.3 ± 0.8 kPa.
